Several values for one entry are separate records, joined by “and”; a condition that tells them apart may be missing. Equal values may be shown once. Read-outs that look alike come from different tables or passages of the source.
Experiments:
[1] = Pharmacokinetics in rats after oral gavage; type: in vivo; settings: rat, PO 10 mg/kg in 100% PEG400, plasma; for half-life: plasma, po, 10 mg/kg
Experimental: Ivacaftor, compound 105 and compound 106 were discrete dosed to rats via oral gavage (PO). Each compound was administered at a dose of 10 mg/kg to three rats (N=3 rats/compound; total of 9 rats in the study). […] Blood samples were centrifuged to obtain plasma. Plasma samples were analyzed for concentrations of the dosed compound at each time point using LC-MS/MS. The limit of quantitation of each compound was 1 ng/mL.

[2] = test system: patients with cystic fibrosis carrying at least one copy of the G551D-CFTR mutation; settings: phase III trials; cited from earlier work
[3] = individual animals, read-out: t1/2 (hr), individual animal (converted)
[4] = mean of N=3 rats, read-out: t1/2 (hr), Mean (converted)

Row | Compound | t1/2 (hr), individual animal ([1]; individual animals) | half-life [1, 3] | half-life [1, 4] | lung function and other key indicators of the disease (sweat chloride levels, likelihood of pulmonary exacerbations, body weight) [2]
1 | [2H]C([2H])([2H])C(c1cc(C(C([2H])([2H])[2H])(C([2H])([2H])[2H])C([2H])([2H])[2H])c(NC(=O)c2c[nH]c3ccccc3c2=O)cc1O)(C([2H])([2H])[2H])C([2H])([2H])[2H] [Compound 105, N-(2,4-Di-(tert-butyl-d9)-5-hydroxyphenyl)-4-oxo-1,4-dihydroquinoline-3-carboxamide] | 16.33 h and 14.39 h | 13.8 h | 14.8 h | 
2 | [2H]C([2H])([2H])C(c1cc(C(C)(C)C)c(NC(=O)c2c[nH]c3ccccc3c2=O)cc1O)(C([2H])([2H])[2H])C([2H])([2H])[2H] [Compound 106, N-(2-(tert-Butyl)-4-(tert-butyl-d9)-5-hydroxyphenyl)-4-oxo-1,4-dihydroquinoline-3-carboxamide] | 14.28 h and 11.92 h | 13.5 h | 13.2 h | 
3 | CC(C)(C)c1cc(C(C)(C)C)c(NC(=O)c2c[nH]c3ccccc3c2=O)cc1O [Ivacaftor, N-(2,4-di-tert-butyl-5-hydroxyphenyl)-4-oxo-1,4-dihydroquinoline-3-carboxamide, reference compound] | 12.43 h and 10.01 h | 9.03 h | 10.5 h | marked levels of improvement
